From the SangsterLogP compilation
Values belong to the compound of their own block, whether it stands above or below them.

Tests used:
[1] = method code SF-AS, from DOI: 10.1021/acs.jmedchem.5b00731, PMID: 26397825; conditions: pH 7.4
[2] = not given; remark: listed apart in the source
[3] = method code SF-FL, from DOI: 10.1562/0031-8655(2004)79<242:pmolop>2.0.co;2, PMID: 15115296; conditions: pH 7.4
[4] = not given; remark: listed apart in the source
[5] = method code SF-AS, from Lee, B.; Shin, J.; Lim, M.; Jang, T.; Park, J.; Kim, K.; Kang, W. (1997). Partition Property of 5-Nitrothiopyrimidine Nucleoside. Bull Korean Chem Soc, 18(7)734-736.; conditions: pH 7.0
[6] = method code SF-AS, from DOI: 10.1016/j.dyepig.2012.09.011; conditions: pH 7.4
[7] = method code SF-HPLC, from DOI: 10.1021/jm00056a006, PMID: 8474102; conditions: pH 7.4
[8] = method code SF-AS, from DOI: 10.1021/jm020389w, PMID: 12620073; conditions: pH 7.4
[9] = not given; remark: listed apart in the source
[10] = method code G-HPLC, from DOI: 10.1016/s0021-9673(01)94303-1
[11] = not given; remark: listed apart in the source
[12] = method code SF-CR+AS, from DOI: 10.1021/bi00514a045, PMID: 7248282; conditions: pH 7.0
[13] = method code SF, from DOI: 10.1016/s0960-894x(00)80094-3; conditions: pH 7.4
[14] = method code SF-AS, from Suikov, S.Yu.; Bondarenko, A.V.; Bogza, S.L.; Lutsyk, A.I. (2003). Distribution of 5-aminopyrazoles and 5-aminoisoxazoles in the octanol-water system. Ukr. Khim. Zh. (Russ. Ed.), 69(5/6)31-34.
[15] = method code SF-AS, from DOI: 10.1562/0031-8655(2002)076<0127:dlbcop>2.0.co;2, PMID: 12194207; conditions: pH 7.3
[16] = not given; remark: listed apart in the source
[17] = not given; remark: listed apart in the source
[18] = not given; remark: listed apart in the source
[19] = method code SF-TN, from Korenman, I M.; Lunicheva, V.; Pomerantseva, G.; Khairulina, D. (1974). Distribution of methacrylic acid between organic solvents and water. Zh. Prikl. Khim., 47(10)2432-2434.
[20] = not given; remark: listed apart in the source
[21] = method code SF-AS, from DOI: 10.1002/jps.2600600712, PMID: 4398902
[22] = method code SF-AS, from DOI: 10.1016/s0021-9673(01)89384-5
[23] = method code SF-AS, from DOI: 10.1016/0223-5234(92)90105-a
[24] = method code SF, from DOI: 10.1021/bi00507a030, PMID: 7213619; conditions: pH 1.0
[25] = method code SF-HPLC, from DOI: 10.1002/ps.2780220406
[26] = method code SF-RC, from DOI: 10.1023/a:1015913817221, PMID: 2798313; conditions: pH 7.4
[27] = method code SF-AS, from DOI: 10.1021/jm0104926, PMID: 11960499
[28] = method code SF-HPLC, from DOI: 10.1016/j.ejps.2013.10.002, PMID: 24161609
[29] = method code SF-HPLC, from DOI: 10.1016/0378-5173(93)90356-k; conditions: pH 7.4
[30] = method code SF-TN, from DOI: 10.1007/bf00632830
[31] = method code SF-AS, from DOI: 10.1562/0031-8655(2003)0780411sacotn2.0.co2, PMID: 14626671; conditions: pH 6.8
[32] = not given; remark: listed apart in the source
[33] = not given; remark: listed apart in the source

Structure (SMILES): O=C(O)CNCP(=O)(O)O
logP: -3.3

logD [1]: 2.86
Structure (SMILES): COCCOCCOCCOCN(C)c1ccc(C=C2CC(=Cc3ccc(N(C)COCCOCCOCCOC)cc3)C2=O)cc1

Structure (SMILES): CCC[N+](=O)[O-]
logP [2]: 0.86

logD [3]: 1.79
Structure (SMILES): O=S(=O)(O)c1ccc(-c2c3nc(c(-c4ccc(S(=O)(=O)O)cc4)c4ccc([nH]4)c(-c4ccccc4)c4nc(c(-c5ccccc5)c5ccc2[nH]5)C=C4)CC3)cc1

logP [4]: 5.47
Structure (SMILES): CCCOC(=O)CC(Cc1cncn1C)C(CC)C(=O)OCc1ccc(COC(=O)C(CC)C(CC(=O)OCCC)Cc2cncn2C)cc1 (stereo not drawn)

logD [5]: -0.86
Structure (SMILES): S=c1cc[nH]c(=S)[nH]1

logD [6]: 2.74
Structure (SMILES): C1=Cc2nc1c(-c1cccs1)c1ccc([nH]1)c(-c1cccs1)c1nc(c(-c3cccs3)c3ccc([nH]3)c2-c2cccs2)C=C1

logD [7]: 3.61
Structure (SMILES): CC(C)CC(O)C(O)C(CC1CCCCC1)NC(=O)C(Cc1cscn1)NC(=O)C(Cc1ccccc1)CS(=O)(=O)C1CCN(C)C1 (stereo not drawn)

logD [8]: 1.55
Structure (SMILES): CCOC(=O)Nc1ccc2cc3ccc(N)c(CO)c3nc2c1

logP [9]: -0.22
Structure (SMILES): Cn1cc[nH]c1=S

Structure (SMILES): CCCCBr
logP [10]: 2.75

logP [11]: 1.56
Structure (SMILES): FC(F)(F)Cl

logD [12]: 0.32
Structure (SMILES): N#CSO

logD [13]: -3.52
Structure (SMILES): NC1CCN(O)C1=O (stereo not drawn)

logD [3]: 4.93
Structure (SMILES): Oc1cccc(-c2c3nc(c(-c4cccc(O)c4)c4ccc([nH]4)c(-c4cccc(O)c4)c4nc(c(-c5cccc(O)c5)c5ccc2[nH]5)C=C4)C=C3)c1

logP [14]: 4.04
Structure (SMILES): Nc1c(-c2ccccc2)c(-c2ccccc2)nn1-c1ccccc1

logD [15]: 3.35
Structure (SMILES): c1ccc2c(c1)-c1cc3[nH]c(cc4nc(cc5[nH]c(cc-2n1)c1ccccc51)-c1ccccc1-4)c1ccccc31

Structure (SMILES): COP(=O)(OC)OC=C(Cl)Cl
logP [16]: 1.4

Structure (SMILES): COP(=O)(OC)OC(Br)C(Cl)(Cl)Br (stereo not drawn)
logP [17]: 2.19

logP [18]: 1.52
Structure (SMILES): CC(=O)O[C@H]1C(=O)[C@@]2(C)[C@H]([C@H](OC(=O)c3ccccc3)[C@]3(O)C[C@H](OC(=O)[C@@H](C)O)C(C)=C1C3(C)C)[C@]1(OC(C)=O)CO[C@@H]1C[C@@H]2O

logP [14]: 1.42
Structure (SMILES): COc1ccc(-c2cc(N)n[nH]2)cc1

logD [6]: 3.75
Structure (SMILES): Nc1cccc(-c2c3nc(c(-c4cccc(N)c4)c4ccc([nH]4)c(-c4cccc(N)c4)c4nc(c(-c5cccc(N)c5)c5ccc2[nH]5)C=C4)C=C3)c1

logP [18]: 1.92
Structure (SMILES): CC(=O)OC1C(=O)C2(C)C(O)CC3OCC3(OC(C)=O)C2C(OC(=O)c2ccccc2)C2(O)CC(OC(=O)C(O)CNC(=O)c3ccccc3)C(C)=C1C2(C)C (stereo not drawn)

logP [19]: 0.93
Structure (SMILES): C=C(C)C(=O)O

Structure (SMILES): ClCC(Cl)Cl
logP [20]: 1.98

logD [15]: 5.42
Structure (SMILES): Oc1cccc(-c2c3nc(c(-c4cccc(O)c4)c4ccc([nH]4)c(-c4cccc(O)c4)c4nc(c(-c5cccc(O)c5)c5ccc2[nH]5)CC4)C=C3)c1

logD [1]: 3.2
Structure (SMILES): CCN(CC)c1ccc(C=C2CC(=Cc3ccc(N(COCCOCCOCCOC)COCCOCCOCCOC)cc3)C2=O)cc1

logP [21]: 0.6
Structure (SMILES): S=C1CCCO1

logP [22]: -0.55
Structure (SMILES): Cc1nccnn1

logP [23]: 1.83
Structure (SMILES): CCOC(=O)Nc1ccc2nn(C)nc2c1

Structure (SMILES): CCC(N)=O
logD [24]: -0.66

logP [25]: 2.54
Structure (SMILES): Clc1ccc(Cn2cncn2)cc1Cl

logP [4]: 6.87
Structure (SMILES): CCCCOC(=O)CC(Cc1cncn1C)C(CC)C(=O)OCc1ccc(COC(=O)C(CC)C(CC(=O)OCCCC)Cc2cncn2C)cc1 (stereo not drawn)

logD [26]: -0.92
Structure (SMILES): NC(N)=S

Structure (SMILES): [N-]=[N+]=CC(F)(F)F
logP [27]: 1.6

logP [28]: -1.2
Structure (SMILES): O=C(O)[C@H](O)[C@@H](O)C(=O)O

logD [29]: -0.7
Structure (SMILES): O=c1[nH]cc(F)c(=O)[nH]1

Structure (SMILES): CN(C)C
logP [30]: 0.27

logD [31]: 1.67
Structure (SMILES): COC1=C2CC(C)=c3c(C(C)=O)c(OC)c(O)c4c3c2c2c(cc(OC)c3c(OC)cc(O)c4c32)C(=O)C1=O

logP [32]: 4.46
Structure (SMILES): CC(C(=O)C1c2cccc(O)c2C(=O)c2c(O)cccc21)c1ccc(Cc2ccccc2)cc1 (stereo not drawn)

Structure (SMILES): CCOCCO
logP [33]: -0.28

logD [7]: 3.89
Structure (SMILES): CC(C)CC(O)C(O)C(CC1CCCCC1)NC(=O)C(Cc1nccs1)NC(=O)C(Cc1ccccc1)CS(=O)(=O)C1CN(C)C1 (stereo not drawn)

logD [31]: 0.5
Structure (SMILES): COc1c(O)c2c(=O)cc(OC)c3c4c(OC)cc(=O)c5c(O)c(NCCN(C)C)c6c(c(c1C(C(C)=O)=C(C)C6)c23)c54
